Values joined by “and” are separate entries in the source; they are usually repeats but may differ in a detail not shown here. Equal values may be shown once.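 Dose response: 5 concentrations. Exposure: 48 h. Format: 96-well plates. Endpoint: linear interpolation; highest concentration if not reached. Abbreviation: GI50, concentration required for 50% inhibition of growth.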 Active and inactive are the calls of the source. Cut-off read from the data, not from the text of the source: active = GI50 up to about 1.1 µM and inactive = higher.
How the values were obtained:
Test in all cases: NCI-60 cell line screen, 48 h
Malme-3M = test system: Malme-3M
SN12C = test system: SN12C
EKVX = test system: EKVX
OVCAR-4 = test system: OVCAR-4
MDA-N = test system: MDA-N
CAKI-1 = test system: CAKI-1
SK-OV-3 = test system: SK-OV-3
T47D = test system: T47D
SK-MEL-5 = test system: SK-MEL-5
HOP-62 = test system: HOP-62
SNB-19 = test system: SNB-19
U-251 = test system: U-251
TK-10 = test system: TK-10
RPMI-8226 = test system: RPMI-8226
NCI-H460 = test system: NCI-H460
ACHN = test system: ACHN
HT-29 = test system: HT-29
OVCAR-3 = test system: OVCAR-3
NCI-H226 = test system: NCI-H226

Measured: GI50

CC(=O)OC1COC(n2c(N)c(C#N)c(-c3ccccc3)c(C#N)c2=S)C(OC(C)=O)C1OC(C)=O (stereo unspecified)
inactive: Malme-3M 34.3 µM and 33.4 µM | SN12C 48.1 µM and 36.7 µM | EKVX 31.9 µM and 29.9 µM | OVCAR-4 41 µM and 38.7 µM | MDA-N 26.6 µM and 27.8 µM | CAKI-1 39.4 µM and 40.7 µM | SK-OV-3 38.3 µM and 45 µM | T47D 33 µM and 28.8 µM | SK-MEL-5 37.9 µM and 30.3 µM | HOP-62 > 100 µM | SNB-19 75.9 µM | U-251 48.8 µM and 53.1 µM | TK-10 30.2 µM | RPMI-8226 24.5 µM and 28.6 µM | NCI-H460 46.8 µM and 65.9 µM | ACHN 45.7 µM and 71.4 µM | HT-29 35.9 µM and 43.1 µM | OVCAR-3 28.9 µM and 33.2 µM

CC(=O)OCC1OC(N2C(C)=C(C(C)=O)C(c3ccco3)C(C#N)=C2S)C(OC(C)=O)C(OC(C)=O)C1OC(C)=O (stereo unspecified)
inactive: Malme-3M > 100 µM | SN12C > 100 µM | OVCAR-4 > 100 µM | MDA-N > 100 µM | CAKI-1 > 100 µM | T47D 78.7 µM | SK-MEL-5 > 100 µM | HOP-62 > 100 µM | SNB-19 > 100 µM | U-251 > 100 µM | TK-10 > 100 µM | RPMI-8226 > 100 µM | NCI-H460 > 100 µM | ACHN > 100 µM | NCI-H226 > 100 µM | HT-29 > 100 µM | OVCAR-3 > 100 µM

COc1cc2c3cc1Oc1cc(ccc1O)C[C@@H]1c4c(cc(OC)c(O)c4Oc4ccc(cc4)C[C@@H]3N(C)CC2)CC[N+]1(C)C
inactive: Malme-3M 17.8 µM | SN12C > 100 µM | EKVX > 100 µM | OVCAR-4 73.8 µM | MDA-N > 100 µM | CAKI-1 > 100 µM | T47D 23.8 µM | SK-MEL-5 > 100 µM | HOP-62 6.95 µM | SNB-19 > 100 µM | U-251 28.9 µM | TK-10 > 100 µM | RPMI-8226 79.6 µM | NCI-H460 33.3 µM | ACHN > 100 µM | NCI-H226 > 100 µM | HT-29 46.5 µM | OVCAR-3 25.7 µM

O=c1cc(O)c2c(O)cc(O)cc2o1
inactive: Malme-3M > 100 µM | SN12C > 100 µM | EKVX > 100 µM | OVCAR-4 > 100 µM | MDA-N > 100 µM | CAKI-1 > 100 µM | T47D > 100 µM | SK-MEL-5 > 100 µM | HOP-62 > 100 µM | SNB-19 > 100 µM | U-251 > 100 µM | TK-10 > 100 µM | RPMI-8226 > 100 µM | NCI-H460 > 100 µM | ACHN > 100 µM | NCI-H226 > 100 µM | HT-29 > 100 µM | OVCAR-3 > 100 µM
